Test system: microbial growth in solutions of sugar
Experiment: Microbial contamination control procedure: dissolved oxygen and pH monitoring of solutions of sugars after adding a sterilisation agent
Method: The process described is based upon the Fiberight industrial scale process, modified for a 1 litre reaction vessel. The amount of organic substrate used in the process is dependent on the required total solids (TS) content of the process. Typically, TS will be between 5-25%. TS is calculated using the required reaction mass and the solids content of the organic substrate, which is typically between 10-70%. (For a reaction mass of 1 kg, with a required TS of 8% (w/w), using organic substrate with a solids content of 32% (w/w), the amount of organic substrate needed for the process is 250 g). The organic substrate is sterilised in an autoclave at 125° C. for 1 hour immediately prior to use.
The reaction vessel is sterilised prior to use by filling with […] and stirring for 1 hour. The ethanol is then drained and the heating jacket set to 50° C. prior to addition of the reaction components (water, organic substrate, and enzyme).
The organic substrate is added to a preheated reaction vessel (50° C.) in one portion followed by sterilised water (the mass of water required=total reaction mass−mass of organic substrate) and stirred at between 200-600 RPM, depending on TS (higher TS requires a higher RPM to ensure thorough mixing). […] DO readings are taken throughout the process and are typically between 3-8 mg/L if no contamination is present. […] Typically this stops after T=3 hours and maintains linear readings. If contamination occurs the DO reading can drop to 0 mg/L, which typically happens between T=5-8 hours. […]
Several sterilisation agents have been tested to determine their effectiveness in controlling microbial growth in solutions of sugar. The sterilisation agents were either introduced at T=0 or at the point that microbial growth is observed, which can be measured by the DO sensor. Typically, contamination can be said to occur when the DO reading starts to drop exponentially, eventually reaching 0 mg/L if no sterilisation agent is added. In these tests, software was used to monitor the DO readings and trigger the addition of an antimicrobial. […]

`[O][Cl+][O-]` [chlorine dioxide] was tested, and the “dissolved oxygen and pH levels / microbial growth” value (0.05 wt % added at T=5 hrs 45 mins, T=50 hrs 30 mins and T=73 hrs 30 mins, FIG. 7) was “stabilise dissolved oxygen and pH levels, thereby preventing further microbial growth”, the “dissolved oxygen and pH levels / microbial growth” value (0.35 wt % added at T=8 hrs 45 mins in a single aliquot, FIG. 6) was “stabilise dissolved oxygen and pH levels, thereby preventing further microbial growth” and the “pH drop (evidence of lactic acid production)” value (added in response to the drop in dissolved oxygen, FIGS. 6 and 7) was “prevented”.
